Laboratory results published in ChEMBL document CHEMBL5252564, “It's ok to be outnumbered - sub-stoichiometric modulation of homomeric protein complexes” (RSC Med Chem, 2023).
Each block holds one compound with its values, some of them ahead of it. Peptide text beside a SMILES is read from it. * marks the point of attachment. X1 = CC(C)[C@H](N*)B(O)O

Columns and labels:
[1] = biological target: Programmed cell death 1 ligand 1 (Homo sapiens) (UniProt Q9NZQ7)
Description: Binding affinity to human PD-L1 (18 to 134 residues) expressed in Escherichia coli BL21(DE3) assessed as thermal stabilization by measuring melting temperature by DSF assay

[2] = biological target: T1, ATP-dependent Clp protease proteolytic subunit (Staphylococcus aureus (strain NCTC 8325)) (UniProt Q2G036); assay: Inhibition of Staphylococcus aureus ClpP assessed as active site modification at 1 uM treated for 1 hr by mass spectrometry analysis relative to control
T1 sequence (whole entry): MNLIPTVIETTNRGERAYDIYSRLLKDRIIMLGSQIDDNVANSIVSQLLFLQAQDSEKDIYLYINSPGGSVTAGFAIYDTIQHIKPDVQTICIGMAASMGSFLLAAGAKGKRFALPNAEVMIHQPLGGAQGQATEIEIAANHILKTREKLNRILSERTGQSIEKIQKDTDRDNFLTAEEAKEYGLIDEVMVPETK

[3] = Binding affinity to Escherichia coli DegP using SPMFKGV-pNA as substrate at activated state by isothermal titration calorimetry
[4] = Binding affinity to Escherichia coli DegP using SPMFKGV-pNA as substrate at resting state by isothermal titration calorimetry

Chain of Programmed cell death 1 ligand 1 (Homo sapiens) (Q9NZQ7 whole entry): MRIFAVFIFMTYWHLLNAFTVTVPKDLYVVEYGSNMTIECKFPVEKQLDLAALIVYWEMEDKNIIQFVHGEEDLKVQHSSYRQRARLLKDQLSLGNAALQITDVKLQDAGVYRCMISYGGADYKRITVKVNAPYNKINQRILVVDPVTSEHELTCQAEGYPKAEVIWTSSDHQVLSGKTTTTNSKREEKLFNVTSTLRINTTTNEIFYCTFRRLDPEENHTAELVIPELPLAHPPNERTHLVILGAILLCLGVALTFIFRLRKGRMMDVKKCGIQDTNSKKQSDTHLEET

Structure (SMILES): COc1nc(OCc2cccc(-c3ccccc3)c2C)ccc1CNCCNC(C)=O
- ΔTm [1]: 13 °C

- inhibition [2]: 63%
Structure (SMILES): C#Cc1ccc(C(=O)C2CN(C(=O)CCCCCCCCC=C)S2(=O)=O)cc1 (stereo not given)

Structure (SMILES): CSCC[C@H](NC(=O)[C@@H]1CCCN1C(=O)[C@@H](N)CC(=O)O)C(=O)N[C@@H](Cc1ccccc1)C(=O)N[C@@H](CCCCN)C(=O)N[C@@H](CC(C)C)C(=O)N[C@H](B(O)O)C(C)C (H-DPMFKL-X1)
- Kd [3]: 0.033 µM
- Kd [4]: 6 µM

- inhibition [2]: 35%
Structure (SMILES): C#CCCC[C@H]1OC(=O)[C@@H]1c1ccc(OC)cc1
